Bridge positions count the residues as written; N and C are the ends. Square brackets hold non-standard residues; d marks the D form. Peptide text beside a SMILES is read from it. * marks the point of attachment. 2Nal = N[C@@H](Cc1ccc2ccccc2c1)C(=O)O; X1 = N=C(N)NCCC[C@H](NC(=N)N)C(=O)*; Cit = NC(=O)NCCC[C@H](N)C(=O)O; X5 = O=C(c1ccccc1F)*; Ava = NCCCCC(=O)O

In one experiment the target is T1, CXCR4 receptor (Homo sapiens, UniProt P61073).
T1 construct: 50 μL of Jurkat human T-cell leukemia cells (6×10^6 cells/mL) suspended in buffer; endogenous in cells; host or cells: Jurkat human T-cell leukemia cells
T1 sequence (P61073 whole entry): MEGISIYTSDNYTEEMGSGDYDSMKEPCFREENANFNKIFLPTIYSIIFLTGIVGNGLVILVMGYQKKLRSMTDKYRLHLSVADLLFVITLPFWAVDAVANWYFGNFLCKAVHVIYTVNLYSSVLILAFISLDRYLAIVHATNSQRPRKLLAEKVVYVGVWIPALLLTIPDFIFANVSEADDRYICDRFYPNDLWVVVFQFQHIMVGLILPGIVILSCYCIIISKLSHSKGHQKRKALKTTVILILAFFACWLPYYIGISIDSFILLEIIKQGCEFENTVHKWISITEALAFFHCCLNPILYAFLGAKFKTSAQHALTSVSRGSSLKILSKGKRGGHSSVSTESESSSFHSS
Description: Inhibition of 125I-CXCL12 binding to CXCR4 receptor on Jurkat cells. The following applies: Table 1, 125I-CXCL12, 1 hour at room temperature, compounds as acetate salt, read-out: IC50 (nM), inhibitory activity against CXCL12 binding to CXCR4 receptor.
Description: After reaction, suction was made toward the reaction solution by 96 well GF/C filter plate, and each well's radioactivity was measured by top count. As the radioactivity index of 100% when the test compound was not added, and 0% when 100 nM of non-radioisotope-labeled CXCL12 was added, the inhibitory activity of each test compound was measured.
What is called IC50 is the concentration that gives 50% inhibition. Regarding `N=C(N)NCCC[C@H](NC(=O)[C@@H]1CSSC[C@H](NC(=O)[C@H](Cc2ccc3ccccc3c2)NC(=O)[C@H](CCC(=O)O)NC(=O)[C@@H](N)CCCNC(=N)N)C(=O)N[C@@H](Cc2ccc(O)cc2)C(=O)N[C@@H](CCCNC(=N)N)C(=O)N[C@@H](CCCCN)C(=O)N[C@H](CCCCN)C(=O)N2CCC[C@H]2C(=O)N[C@@H](Cc2ccc(O)cc2)C(=O)N[C@@H](CCCNC(=N)N)C(=O)N[C@@H](CCCNC(N)=O)C(=O)N1)C(=O)O` [TE14002, H-Arg-Glu-Nal-Cys-Tyr-Arg-Lys-DLys-Pro-Tyr-Arg-Cit-Cys-Arg-OH] (H-RE[2Nal]CYRK[dK]PYR[Cit]CR-OH; disulfide 4-13), the IC50 amounted to 680 nM.

For the compound `N=C(N)NCCC[C@H](NC(=O)[C@@H]1CSSC[C@H](NC(=O)[C@H](Cc2ccc3ccccc3c2)NC(=O)[C@H](CCCNC(=N)N)NC(=O)[C@@H](N)CCCNC(=N)N)C(=O)N[C@@H](Cc2ccc(O)cc2)C(=O)N[C@@H](CCCNC(N)=O)C(=O)N[C@@H](CCCCN)C(=O)N[C@H](CCC(=O)O)C(=O)N2CCC[C@H]2C(=O)N[C@@H](Cc2ccc(O)cc2)C(=O)N[C@@H](CCCNC(=N)N)C(=O)N[C@@H](CCCNC(N)=O)C(=O)N1)C(N)=O` [TE14011, H-Arg-Arg-Nal-Cys-Tyr-Cit-Lys-DGlu-Pro-Tyr-Arg-Cit-Cys-Arg-NH2] (H-RR[2Nal]CY[Cit]K[dE]PYR[Cit]CR-NH2; disulfide 4-13), the IC50 worked out at 2.9 nM.

As for `N=C(N)NCCC[C@H](NC(=O)[C@@H]1CSSC[C@H](NC(=O)[C@H](Cc2ccc3ccccc3c2)NC(=O)[C@@H](N)CCCNC(=N)N)C(=O)N[C@@H](Cc2ccc(O)cc2)C(=O)N[C@@H](CCCNC(N)=O)C(=O)N[C@@H](CCCCN)C(=O)N[C@H](CCC(=O)O)C(=O)N2CCC[C@H]2C(=O)N[C@@H](Cc2ccc(O)cc2)C(=O)N[C@@H](CCCNC(=N)N)C(=O)N[C@@H](CCCNC(N)=O)C(=O)N1)C(N)=O` [TF17, H-Arg-Nal-Cys-Tyr-Cit-Lys-DGlu-Pro-Tyr-Arg-Cit-Cys-Arg-NH2] (H-R[2Nal]CY[Cit]K[dE]PYR[Cit]CR-NH2; disulfide 3-12), the IC50 was 79 nM.

On to `N=C(N)NCCC[C@H](NC(=O)[C@@H]1CSSC[C@H](NC(=O)[C@H](Cc2ccc3ccccc3c2)NC(=O)[C@H](CCCNC(=N)N)NC(=O)CCCCN)C(=O)N[C@@H](Cc2ccc(O)cc2)C(=O)N[C@@H](CCCNC(N)=O)C(=O)N[C@@H](CCCCN)C(=O)N[C@H](CCC(=O)O)C(=O)N2CCC[C@H]2C(=O)N[C@@H](Cc2ccc(O)cc2)C(=O)N[C@@H](CCCNC(=N)N)C(=O)N[C@@H](CCCNC(N)=O)C(=O)N1)C(N)=O` [TF7, APA-Arg-Nal-Cys-Tyr-Cit-Lys-DGlu-Pro-Tyr-Arg-Cit-Cys-Arg-NH2] (H-[Ava]R[2Nal]CY[Cit]K[dE]PYR[Cit]CR-NH2; disulfide 4-13), for which the IC50 came out at 5.7 nM.

For the compound `N=C(N)NCCC[C@H](NC(=O)[C@@H]1CSSC[C@H](NC(=O)[C@H](Cc2ccc3ccccc3c2)NC(=O)[C@H](CCCNC(=N)N)NC(=O)[C@H](CCCNC(=N)N)NC(=N)N)C(=O)N[C@@H](Cc2ccc(O)cc2)C(=O)N[C@@H](CCCNC(N)=O)C(=O)N[C@@H](CCCCN)C(=O)N[C@H](CCC(=O)O)C(=O)N2CCC[C@H]2C(=O)N[C@@H](Cc2ccc(O)cc2)C(=O)N[C@@H](CCCNC(=N)N)C(=O)N[C@@H](CCCNC(N)=O)C(=O)N1)C(N)=O` [TF2, guanyl-Arg-Arg-Nal-Cys-Tyr-Cit-Lys-DGlu-Pro-Tyr-Arg-Cit-Cys-Arg-NH2] (X1-R[2Nal]CY[Cit]K[dE]PYR[Cit]CR-NH2; disulfide 3-12), the IC50 was 3.3 nM.

On to `N=C(N)NCCC[C@H](NC(=O)[C@@H]1CSSC[C@H](NC(=O)[C@H](Cc2ccc3ccccc3c2)NC(=O)[C@H](CCCNC(=N)N)NC(=O)[C@@H](N)CCCNC(=N)N)C(=O)N[C@@H](Cc2ccc(O)cc2)C(=O)N[C@H](CCC(=O)O)C(=O)N[C@@H](CCCCN)C(=O)N[C@H](CCC(=O)O)C(=O)N2CCC[C@H]2C(=O)N[C@@H](Cc2ccc(O)cc2)C(=O)N[C@@H](CCCNC(=N)N)C(=O)N[C@@H](CCCNC(N)=O)C(=O)N1)C(N)=O` [TE14013, H-Arg-Arg-Nal-Cys-Tyr-DGlu-Lys-DGlu-Pro-Tyr-Arg-Cit-Cys-Arg-NH2] (H-RR[2Nal]CY[dE]K[dE]PYR[Cit]CR-NH2; disulfide 4-13), for which the IC50 came to 9.3 nM.

For the compound `N=C(N)NCCC[C@H](NC(=O)[C@@H]1CSSC[C@H](NC(=O)[C@H](Cc2ccc3ccccc3c2)NC(=O)[C@H](CCCNC(=N)N)NC(=O)[C@H](CCCNC(=N)N)NC(=O)c2ccccc2F)C(=O)N[C@@H](Cc2ccc(O)cc2)C(=O)N[C@@H](CCCNC(N)=O)C(=O)N[C@@H](CCCCN)C(=O)N[C@H](CCC(=O)O)C(=O)N2CCC[C@H]2C(=O)N[C@@H](Cc2ccc(O)cc2)C(=O)N[C@@H](CCCNC(=N)N)C(=O)N[C@@H](CCCNC(N)=O)C(=O)N1)C(N)=O` [TF6, 2F-benzoyl-Arg-Arg-Nal-Cys-Tyr-Cit-Lys-DGlu-Pro-Tyr-Arg-Cit-Cys-Arg-NH2] (X5-RR[2Nal]CY[Cit]K[dE]PYR[Cit]CR-NH2; disulfide 4-13), the IC50 is 3.9 nM.

In the next experiment the test system is mouse collagen-induced arthritis. The experiment in a line: Mouse collagen-induced arthritis. The experiment is classed as in vivo, DBA/1JN mouse. The settings on record: known drugs p.o. daily for 2 weeks: Indomethacin 1 mg/kg, methotrexate 3 mg/kg, FK-506 10 mg/kg. As to the method:
FK-506 was purified by a known method (Kino T. et al., J. Antibiot., 1987 40(9): 1249-55). […] For 2 weeks after the additional immunization, body weights and hindlimb thickness were measured and arthritis scoring was made. Arthritis scores were scored at 0-3 points of each limb, and evaluated by the total of the same (12 points being the full points; 0, normal; 1, mild swelling or swelling of a single digit; 2, moderate swelling or swelling of plural digits; 3, severe swelling). Two weeks after the immunization, four limbs and sera were picked. After coat blocking bovine type II collagen (10 μg/mL PBS solution) on the immunoplate, 100 μL of 1000 times diluted mouse serum was added, and kept at room temperature for 2 hours. After cleansing, anti-mouse IgG2a antibody (1000 times dilution) was added. After cleansing, TMB was added, kept at room temperature for 30 minutes, H2SO4 of equal amount was added, and A450 nm was measured. Indomethacin (1 mg/kg), methotrexate (3 mg/kg) and FK-506 (10 mg/kg) were suspended to 0.5% methyl cellulose, and orally administered every day for 2 weeks from the day of the additional immunization at the dose of 0.1 mL/10 g body weight. 0.5% methyl cellulose solution of the equal dose was orally administered to the control group. 4Fbenzoyl-TN14003 was dissolved to PBS, and continuously administered using Alzet osmotic pumps (Alza, 0.5 μL/hr 2 weeks). The osmotic pumps were implanted intradermally to the backs of the mice under ether anesthesia on the day before the additional immunization. As the control, pumps injected with PBS were similarly implanted. Evaluation of each drug was made for the value obtained 2 weeks after the additional immunization. Data were expressed as mean value±standard margin of error (n=8-12). Comparison between 2 groups was made by Student's t-test, p≦0.05 was valued as significant. Multiple comparison was made by Dunnett test, p≦0.05 was valued as significant.
As for `COc1ccc2c(c1)c(CC(=O)O)c(C)n2C(=O)c1ccc(Cl)cc1` [Indomethacin, reference compound], the arthritis score result is listed as “significant or evident inhibitory activity” and the hindlimb swelling result is “significantly inhibited”.

Regarding `CN(Cc1cnc2nc(N)nc(N)c2n1)c1ccc(C(=O)N[C@@H](CCC(=O)O)C(=O)O)cc1` [methotrexate, reference compound], the arthritis score entry is “significant or evident inhibitory activity” and the hindlimb swelling result is listed as “significantly inhibited”.
